Here are results for one molecule from ChEMBL document CHEMBL4118205, “Design, synthesis and biological evaluation of artemisinin derivatives containing fluorine atoms as anticancer agents” (Bioorg Med Chem Lett, 2018).

For orientation: IC50 means the concentration needed to halve the response being measured.

For assay [1], the system named is MCF7. Description: Cell cycle arrest in human MCF7 cells assessed as accumulation at G2 phase at 0.5 uM after 48 hrs by propidium iodide staining based flow cytometry (reference value: 13.24%). In kind it is functional.
Assay [2] deals with MCF7. The assay can be described thus: Induction of apoptosis in human MCF7 cells assessed as late apoptotic cells at 1 uM after 48 hrs by Annexin-V FITC/propidium iodide staining based flow cytometry (reference value: 6.22%). It is filed as functional. For orientation: In flow cytometry, cells or beads pass a laser one at a time.
Assay [3] has as its system MCF7. The assay can be described thus: Induction of apoptosis in human MCF7 cells assessed as necrotic cells at 1 uM after 48 hrs by Annexin-V FITC/propidium iodide staining based flow cytometry (reference value: 4.69%). It is filed as functional.
The test system of assay [4] is MCF7. The assay can be described thus: Induction of apoptosis in human MCF7 cells assessed as viable cells at 10 uM after 48 hrs by Annexin-V FITC/propidium iodide staining based flow cytometry (reference value: 88.59%). In kind it is functional. The settings on record: MCF7, 48 h, read-out: Activity.
For assay [5], the system named is MCF7. The assay can be described thus: Induction of apoptosis in human MCF7 cells assessed as necrotic cells at 5 uM after 48 hrs by Annexin-V FITC/propidium iodide staining based flow cytometry (reference value: 4.69%). It is filed as functional.
In another assay the test system is A-375. The assay can be described thus: Cytotoxicity against human A375 cells assessed as reduction in cell viability after 72 hrs by MTT assay. It is filed as functional, cell-based. The settings on record: A-375, 72 h.
In assay [6] the test system is MCF7. The assay can be described thus: Induction of apoptosis in human MCF7 cells assessed as late apoptotic cells at 20 uM after 48 hrs by Annexin-V FITC/propidium iodide staining based flow cytometry (reference value: 6.22%). In kind it is functional.
Assay [7] concerns MCF7. The assay can be described thus: Cell cycle arrest in human MCF7 cells assessed as accumulation at S phase at 1 uM after 48 hrs by propidium iodide staining based flow cytometry (reference value: 41.55%). In kind it is functional.
Assay [8] has as its system MCF7. The assay can be described thus: Induction of apoptosis in human MCF7 cells assessed as viable cells at 20 uM after 48 hrs by Annexin-V FITC/propidium iodide staining based flow cytometry (reference value: 88.59%). In kind it is functional. The settings on record: MCF7, 48 h, read-out: Activity.
Assay [9] relates to MCF7. The assay can be described thus: Cell cycle arrest in human MCF7 cells assessed as accumulation at S phase at 10 uM after 48 hrs by propidium iodide staining based flow cytometry (reference value: 41.55%). In kind it is functional.

In the case of `C[C@H]1[C@H](N2CCN(C(=O)Nc3ccc(OC(F)(F)F)cc3)CC2)O[C@@H]2O[C@@]3(C)CC[C@H]4[C@H](C)CC[C@@H]1[C@@]24OO3`, the Activity was found to be 12.33% in the assay on MCF7 [1]; 7.01% in the assay on MCF7 [2]; 8.1% in the assay on MCF7 [3]; 21.51% in the assay on MCF7 [5]; 68.8% with MCF7 [6]; 33.33% with MCF7 [7]. For the same molecule, the Activity with MCF7 [9] came out at 9.2%. The viability at 10 µM with MCF7 [4] is 28.7%. Moreover, the IC50 in the assay on A-375 came out at 3.4 µM. Also, in the assay on MCF7 [8], the viability at 20 µM stood at 16.2%.
